Results on five molecules are retold here after patent US8652785B2, “Method of screening a modulator of endothelial NO synthase comprising the use of heme binding protein 1” (Sanofi, priority 2008, dated 2014).

Read-outs that look alike come from different tables or passages of the source. Some results are limits rather than exact numbers.

One may read the EC50 as the midpoint of the concentration-response curve. A word on the IC50: it is the concentration that inhibits the measured activity by half.

Assay [1] has as its system eNOS promoter. The assay can be described thus: eNOS-transcription test (eNOS-promoter luciferase reporter cell line EA.csr03). As to conditions: Homo sapiens; EA.csr03 cells; read-out: Cellular EC50 in the eNOS-transcription test. The assay is classed as cell-based. The method, then:
The EA.csr03 cells are cells of a stable eNOS-promoter luciferase cell line. It was obtained by transfection of EA.hy926 cells with a firefly luciferase reporter construct, with a 3.5 kb fragment of the eNOS-promoter added. Cultivation of these cells was carried out with IMDM with GlutaMAX™ I supplemented with 100 U/ml penicillin, 100 μg/ml streptomycin, 10% FCS and 0.4 mg/ml geneticin as selection antibiotic. The EA.hy926 cells are a stable human cell line, which was obtained by fusion of HUVEC with the human […] cell line A549. This cell line is characterized by expression of specific endothelial cell markers, e.g. the “van-Willebrand factor”. The cells used are an original culture of Cora Jean Edgell of passage 32. The cells were cultivated in IMDM with GlutaMAX™ I supplemented with 100 U/ml penicillin, 100 μg/ml streptomycin, HAT Hybri-Max™ medium additive (hypoxanthine, aminopterin and thymidine) and Biotect protective medium.
For transcription test for eNOS promoter activation, 20 000 cells per well of the reporter cell line EA.csr03 were sown in a white 96-well cell culture plate. After 24 hours, various dilutions of the substance in cell culture medium were prepared starting from DMSO stock solutions and were preincubated for 10 min at 37° C. on a water bath. Then these incubation media (100 μl/well) were added to the cells. After incubation for 18 hours, the cells were washed twice with DPBS (100 μl/well) and luciferase lysis buffer (50 μl/well) was added. After 10 min, the solubilized luciferase-substrate luciferin (100 μl/well) was added to the cell lysates. During the luciferase-catalyzed oxidation of luciferin to oxyluciferin there is release of chemiluminescence. […] The light units released were measured in the Genios microplate reader from Tecan Deutschland (Crailsheim, Germany).
For orientation: A reporter such as luciferase makes a cellular process visible.

Assay [2] deals with T1, TBP-related Protein 1 (TBPL1) (Homo sapiens, UniProt P62380).
T1 construct: purchased Invitrogen, Karlsruhe, Germany ProtoArrays v3.0
T1 sequence (P62380 1-186): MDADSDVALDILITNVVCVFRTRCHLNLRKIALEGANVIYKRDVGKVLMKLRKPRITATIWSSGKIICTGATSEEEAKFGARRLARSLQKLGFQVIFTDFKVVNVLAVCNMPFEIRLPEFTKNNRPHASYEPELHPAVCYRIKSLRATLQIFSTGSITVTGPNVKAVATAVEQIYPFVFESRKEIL
Briefly: Protein microarray (ProtoArray) binding, TBPL1. The method, then: (§1) The protein-microarray experiments were carried out using ProtoArrays® v3.0 (Invitrogen, Karlsruhe, Germany). These were nitrocellulose-coated glass plates, on which approx. 5000 recombinant human proteins, in duplicates, were immobilized.
(§2) In the first step the microarrays were incubated for one hour at 4° C. with a MOPS blocking buffer with 0.1% (v/v) Igepal and 1% (w/v) BSA. Then the arrays with the biotin-labeled eNOS transcription enhancers A012 and A013, sometimes in the presence of the unlabeled substance 9257, were incubated at 4° C. for 90 min without shaking, in various test conditions in a MOPS sample buffer with 1% (v/v) Igepal and 1% (w/v) BSA.
(§3) After washing three times, in each case for 1 min, with pure MOPS sample buffer on ice, they were incubated for 30 min with IRDye®680-labeled streptavidin diluted 1/1000 in MOPS sample buffer away from the light, also on ice. IRDye®680- and IRDye®800-labeled secondary antibodies, which recognize the constant Fc-part of the primary antibodies, were used exclusively for the immunodetection of certain proteins. […] The advantage of this wavelength range is the very good signal-to-noise ratio on account of low intrinsic fluorescence. Detection employs the ODYSSEY™ from LI-COR Biosciences (Bad Homburg, Germany). […]
(§4) These labeling (A) and competition tests (B) were evaluated by quantifying the fluorescence signals.

Assay [3] deals with T2, Cytidinemonophosphate-N-acetylneuraminic acid-synthetase (CMAS) (Homo sapiens, UniProt Q8NFW8).
T2 construct: purchased Invitrogen, Karlsruhe, Germany ProtoArrays v3.0
The assay can be described thus: Protein microarray (ProtoArray) binding, CMAS. The method, then: as §1, §2, §3, §4

Assay [4] concerns the target T3, Transcription factor EB (TFEB) (Homo sapiens, UniProt P19484).
T3 construct: purchased Invitrogen, Karlsruhe, Germany ProtoArrays v3.0
T3 sequence (P19484 1-476): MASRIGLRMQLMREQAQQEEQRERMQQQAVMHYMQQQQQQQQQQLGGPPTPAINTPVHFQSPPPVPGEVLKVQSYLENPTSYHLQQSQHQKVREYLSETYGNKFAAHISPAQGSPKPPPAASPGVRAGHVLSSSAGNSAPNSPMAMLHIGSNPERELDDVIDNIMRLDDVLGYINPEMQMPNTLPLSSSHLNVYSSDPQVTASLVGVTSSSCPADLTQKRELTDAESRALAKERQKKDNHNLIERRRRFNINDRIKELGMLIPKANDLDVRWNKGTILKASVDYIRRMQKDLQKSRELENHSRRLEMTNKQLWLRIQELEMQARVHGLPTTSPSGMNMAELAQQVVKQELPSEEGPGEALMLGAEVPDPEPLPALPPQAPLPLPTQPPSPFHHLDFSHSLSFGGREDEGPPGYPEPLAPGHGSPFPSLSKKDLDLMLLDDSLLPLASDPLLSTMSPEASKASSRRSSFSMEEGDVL
Briefly: Protein microarray (ProtoArray) binding, TFEB. The method, then:
as §1, §2, §3, §4

In assay [5] the target is T4, Mitogen-activated protein kinase 7 (MAPK7) (Homo sapiens, UniProt Q13164).
T4 construct: purchased Invitrogen, Karlsruhe, Germany ProtoArrays v3.0
The assay can be described thus: Protein microarray (ProtoArray) binding, MAPK7. The method, then: as §1, §2, §3, §4

The target of assay [6] is T5, AMP-activated protein kinase, catalytic subunit alpha 1 (PRKAA1) (Homo sapiens, UniProt Q13131).
T5 construct: purchased Invitrogen, Karlsruhe, Germany ProtoArrays v3.0
The assay can be described thus: Protein microarray (ProtoArray) binding, PRKAA1. The method, then:
as §1, §2, §3, §4

The target of assay [7] is T6, Phosphoserine aminotransferase 1 (PSAT1) (Homo sapiens, UniProt Q9Y617).
T6 construct: purchased Invitrogen, Karlsruhe, Germany ProtoArrays v3.0
T6 sequence (Q9Y617 1-370): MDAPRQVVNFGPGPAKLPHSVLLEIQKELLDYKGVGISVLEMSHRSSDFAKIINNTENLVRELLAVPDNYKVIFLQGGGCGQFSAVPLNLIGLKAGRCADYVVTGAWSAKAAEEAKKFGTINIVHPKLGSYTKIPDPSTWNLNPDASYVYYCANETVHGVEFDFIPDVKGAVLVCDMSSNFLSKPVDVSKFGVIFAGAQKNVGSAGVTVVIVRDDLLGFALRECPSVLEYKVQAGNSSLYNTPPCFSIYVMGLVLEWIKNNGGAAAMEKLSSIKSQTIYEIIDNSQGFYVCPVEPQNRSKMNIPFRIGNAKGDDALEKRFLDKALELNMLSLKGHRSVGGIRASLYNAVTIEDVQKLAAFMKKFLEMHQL
The assay can be described thus: Protein microarray (ProtoArray) binding, PSAT1. The method, then:
as §1, §2, §3, §4

For assay [8], the system named is recombinant human proteins on ProtoArrays v3.0. The assay can be described thus: Protein microarray (ProtoArray) labeling and competition, qualitative. The assay is classed as binding. As to conditions: substance 100 μM. The method, then:
as §1, §2
as §3, with “Germany). With this instrument it is possible to detect both emission wavelengths on one membrane simultaneously.” for “Germany).”

Assay [9] addresses T7, human Hexahis-HEBP1 (Homo sapiens, UniProt Q9NRV9).
T7 construct: Hexahis (6xHis) (N); made in house; host or cells: E. coli BL21 Star (DE3)
T7 sequence (Q9NRV9 1-189): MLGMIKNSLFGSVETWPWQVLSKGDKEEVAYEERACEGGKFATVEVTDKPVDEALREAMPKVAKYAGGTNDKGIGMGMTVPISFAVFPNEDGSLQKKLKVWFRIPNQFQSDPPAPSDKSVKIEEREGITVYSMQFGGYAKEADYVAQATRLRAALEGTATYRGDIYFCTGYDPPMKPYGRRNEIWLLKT
Briefly: Binding studies by quenching of tryptophan fluorescence. The text has this: For carrying out binding studies with human HEBP1, it is possible to utilize the intrinsic fluorescence of the tryptophan residues at λ=340 nm, using an excitation wavelength of λ=295 nm. The resultant fluorescence can be “quenched” by binding of porphyrins in spatial proximity to the tryptophan residues. This leads to a decrease of intrinsic fluorescence, which therefore provides a measure for the binding of a ligand. In order to optimize the experimental conditions for these quench measurements it was first necessary to evaluate the spectroscopic properties of the recombinant Hexahis-HEBP1.
Next, studies of the binding of hemin and protoporphyrin IX (PPIX) to human Hexahis-HEBP1 in the presence of eNOS transcription enhancers by tryptophan quenching were carried out. Binding studies with human HEBP1 are carried out using the intrinsic fluorescence of tryptophan residues that are contained. The fluorescence occurring at λ=340 nm after excitation with a wavelength of λ=295 nm can be “quenched” through the binding of porphyrins in proximity to the tryptophan residues. The measured fluorescence decreases as a function of the concentration of the ligands. Using nonlinear regression, it is possible to calculate the binding parameters.
Hemin and PPIX at concentrations from 30 nM to 10 μM were added to a buffered HEBP1 solution (500 nM) and after incubation for 10 min the tryptophan fluorescence was measured (FIG. 3). It was not possible to use higher porphyrin concentrations owing to the low solubility in aqueous systems.
The influence of the eNOS-transcription enhancers on tryptophan quenching by hemin was investigated next. In the experiments the recombinant human HEBP1 at a concentration of 500 nM was preincubated on ice for 30 min with the eNOS-substance 9257 versus DMSO-control in a binding buffer (pH 7.4) of HEPES (20 mM), sodium chloride (100 mM) and DTT (1 mM). Black, 96-well plates were used as the reaction vessel. Then hemin or protoporphyrin IX was added at varying concentrations through addition of the 200-fold concentrated DMSO stock solution and incubated for 10 min at room temperature. Finally, the tryptophan fluorescence was measured after previous optimization at λexc=295 nm and λem=340 nm in the Safire^2 microplate reader (Tecan Deutschland, Crailsheim, Germany).
First we investigated whether substance 9257 can quench the tryptophan fluorescence of HEBP1. […] Therefore the binding of 9257 was investigated indirectly through competition with hemin. For this, HEBP1 (500 nM) was preincubated with 9257 (10 μM) on ice, versus DMSO-control. After 30 min the hemin was added at varying concentrations of 0.1-10 μM and it was incubated at room temperature for a further 10 min before measuring the tryptophan fluorescence (FIG. 4).

The mark [10] stands for this setting: B: A012 (100 μM) in the presence of unlabeled substance 9257 (25 μM).
Where [11] appears, read: 0.5 μM HEBP1, ligand 30 nM to 10 μM, 10 min, read-out: IC50 of tryptophan fluorescence quenching.

T5 sequence (Q13131 whole entry): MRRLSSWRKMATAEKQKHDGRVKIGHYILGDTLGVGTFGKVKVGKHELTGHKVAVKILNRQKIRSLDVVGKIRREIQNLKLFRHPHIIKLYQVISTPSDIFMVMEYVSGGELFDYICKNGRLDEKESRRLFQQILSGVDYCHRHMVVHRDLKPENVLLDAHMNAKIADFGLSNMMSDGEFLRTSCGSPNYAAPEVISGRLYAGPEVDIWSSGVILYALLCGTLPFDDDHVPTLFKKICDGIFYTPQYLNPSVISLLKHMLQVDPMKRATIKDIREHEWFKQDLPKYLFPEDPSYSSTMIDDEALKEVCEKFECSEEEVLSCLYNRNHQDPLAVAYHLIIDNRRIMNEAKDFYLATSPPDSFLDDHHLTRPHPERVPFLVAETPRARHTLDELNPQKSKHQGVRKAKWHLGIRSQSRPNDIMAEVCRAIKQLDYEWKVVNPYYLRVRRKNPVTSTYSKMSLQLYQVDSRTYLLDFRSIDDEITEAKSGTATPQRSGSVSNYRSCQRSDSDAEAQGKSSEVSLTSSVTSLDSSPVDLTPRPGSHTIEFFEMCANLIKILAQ
T4 sequence (Q13164 whole entry): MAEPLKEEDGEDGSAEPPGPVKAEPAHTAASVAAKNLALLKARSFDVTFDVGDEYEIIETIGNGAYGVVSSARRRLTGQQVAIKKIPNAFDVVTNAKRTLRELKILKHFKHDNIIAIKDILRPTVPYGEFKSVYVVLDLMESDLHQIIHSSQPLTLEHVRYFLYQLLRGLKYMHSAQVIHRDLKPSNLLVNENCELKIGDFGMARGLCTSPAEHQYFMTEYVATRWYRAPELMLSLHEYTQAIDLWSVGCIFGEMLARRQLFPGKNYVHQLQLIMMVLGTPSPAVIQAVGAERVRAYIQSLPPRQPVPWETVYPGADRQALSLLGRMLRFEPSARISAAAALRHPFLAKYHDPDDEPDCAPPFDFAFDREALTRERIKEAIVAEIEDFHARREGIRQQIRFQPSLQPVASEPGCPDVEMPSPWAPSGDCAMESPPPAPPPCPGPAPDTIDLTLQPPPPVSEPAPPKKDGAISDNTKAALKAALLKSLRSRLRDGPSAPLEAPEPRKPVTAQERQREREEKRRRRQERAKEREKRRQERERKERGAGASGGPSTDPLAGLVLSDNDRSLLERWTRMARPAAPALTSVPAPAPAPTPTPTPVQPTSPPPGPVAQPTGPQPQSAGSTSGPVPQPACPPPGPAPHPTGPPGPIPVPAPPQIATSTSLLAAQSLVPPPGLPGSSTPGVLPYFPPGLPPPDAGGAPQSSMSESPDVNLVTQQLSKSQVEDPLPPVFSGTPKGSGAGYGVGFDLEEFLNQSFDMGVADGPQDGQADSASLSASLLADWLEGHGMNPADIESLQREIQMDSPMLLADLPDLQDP
T2 sequence (Q8NFW8 whole entry): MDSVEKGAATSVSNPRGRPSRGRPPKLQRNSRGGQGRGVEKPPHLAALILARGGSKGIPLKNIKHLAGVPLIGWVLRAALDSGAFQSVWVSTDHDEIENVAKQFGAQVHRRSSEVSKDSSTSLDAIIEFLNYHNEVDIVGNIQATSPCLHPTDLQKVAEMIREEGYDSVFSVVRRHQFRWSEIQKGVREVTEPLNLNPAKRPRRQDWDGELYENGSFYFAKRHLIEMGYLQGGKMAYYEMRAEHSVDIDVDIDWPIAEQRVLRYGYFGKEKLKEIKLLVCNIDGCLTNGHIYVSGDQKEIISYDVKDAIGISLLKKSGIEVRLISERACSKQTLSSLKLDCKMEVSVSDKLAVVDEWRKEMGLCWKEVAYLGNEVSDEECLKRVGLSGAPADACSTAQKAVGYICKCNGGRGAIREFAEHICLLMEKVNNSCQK

For the molecule `O=C(CCCC[C@@H]1SC[C@@H]2NC(=O)N[C@@H]21)NCCCCCC(=O)NCCOCCOc1ccc(C(=O)N[C@H]2CCCc3ccccc3C2)cc1` [A012], in [1], the EC50 stood at 1200 nM. Also, the “Fluorescence intensity A” value in [2] (A: A012 (100 μM)) turned out to be 10788; in [3] (A: A012 (100 μM)) it was 10411; in [4] (A: A012 (100 μM)) it was 4987; in [5] (A: A012 (100 μM)), 4775; in [6] (A: A012 (100 μM)), 3791; in assay [7] (A: A012 (100 μM)), 3151. The “Fluorescence intensity B” value in assay [2] (setting [10]) turned out to be 4083; in assay [3] (setting [10]), 5028; in assay [4] (setting [10]), 1333; in assay [5] (setting [10]) it was 1135; in [6] (setting [10]), 1206; in [7] (setting [10]), 2269. Besides, the “labeling of protein duplicates on the microarray” value in assay [8] was “readily discernible”.

`O=C(NC1Cc2ccccc2C1)c1ccc(F)cc1` [AVE9488]: the EC50 in [1] was 3000 nM.

As to `O=C(CCCC[C@@H]1SC[C@@H]2NC(=O)N[C@@H]21)NCCCCCC(=O)NCCOCCOc1ccc(C(=O)N[C@@H]2CCCc3ccccc3C2)cc1` [A013], the EC50 in assay [1] was over 10000 nM. Further, the “labeling of protein duplicates on the microarray” value in [8] is reported as “no binding of the substance to the proteins”.

As to hemin, the half-inhibitory concentration (IC50) in assay [9] (setting [11]) came out at 3000 nM; in assay [9] (HEBP1 500 nM, DMSO-control, hemin 0.1-10 μM, read-out: IC50 of the hemin binding curve, DMSO-control), 1100 nM. Also, the “potency of hemin relative to PPIX” value in assay [9] (from IC50 values) is reported as 10 times.

As for `C=CC1=C(C)c2cc3[nH]c(cc4nc(cc5[nH]c(cc1n2)c(C)c5CCC(=O)O)C(CCC(=O)O)=C4C)c(C)c3C=C` [PPIX, protoporphyrin IX], the IC50 in [9] (setting [11]) is 13000 nM.
